Assay: Anticancer human tumor 997537-175-T-J1-PDC patient-derived colon adenocarcinoma cell line growth inhibition [POLQ]
Conditions: 997537-175-T-J1-PDC complex spheroid viability, combination with POLQ inhibitors; second compound 0.316 µM; first compound 1 µM; stronger effect = lower value
Procedure, shortened: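 Growth inhibition in 3D: complex spheroids (tumor PDC, HUVEC, MSC) treated with POLQ inhibitor combinations; where Cmax unknown, highest tested concentration 10 microM, except SN-38 at 1 microM.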
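Also: luminescence signal used as a surrogate for viable cells; spheroids exposed to drugs for seven days before readout.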

First: Nc1ccn(C2OC(CO)C(O)C2(F)F)c(=O)n1 (configuration not stated) + Nc1ccc(C#CCN(C(=O)Cc2ncc(C(F)(F)F)cc2C(F)(F)F)c2ccc(F)cc2)nn1
Second: CCCS(=O)(=O)Nc1ccc(F)c(C(=O)c2c[nH]c3ncc(-c4ccc(Cl)cc4)cc23)c1F + Nc1ccc(C#CCN(C(=O)Cc2ncc(C(F)(F)F)cc2C(F)(F)F)c2ccc(F)cc2)nn1
The viability, T/C of the first is higher: 92.9% for the first, 71.9% for the second.

Compared with O=c1[nH]cc(F)c(=O)[nH]1 + COC1C(OC(N)=O)C(O)C(Oc2ccc3c(O)c(NC(=O)c4ccc(O)c(CC=C(C)C)c4)c(=O)oc3c2C)OC1(C)C, COc1ccc([C@@H](O)c2cc(-c3ncnc4cc(N5CCOCC5)ccc34)c(F)cc2Cl)nn1 + Cc1cccc(N(C)C(=O)C2C(O)CCN2c2nc(C)cc(C(F)(F)F)c2C#N)c1 is higher in viability, T/C: 87.7% for the first, 104% for the second.

With O=c1[nH]cc(F)c(=O)[nH]1 + Nc1ccc(C#CCN(C(=O)Cc2ncc(C(F)(F)F)cc2C(F)(F)F)c2ccc(F)cc2)nn1 the viability, T/C was 105%.

Same assay, conditions: 997537-175-T-J1-PDC complex spheroid viability, combination with POLQ inhibitors; second compound 0.316 µM; first compound 3.16 µM; stronger effect = lower value

Going from Nc1ccn(C2OC(CO)C(O)C2(F)F)c(=O)n1 (configuration not stated) + Nc1ccc(C#CCN(C(=O)Cc2ncc(C(F)(F)F)cc2C(F)(F)F)c2ccc(F)cc2)nn1 to CCCS(=O)(=O)Nc1ccc(F)c(C(=O)c2c[nH]c3ncc(-c4ccc(Cl)cc4)cc23)c1F + Nc1ccc(C#CCN(C(=O)Cc2ncc(C(F)(F)F)cc2C(F)(F)F)c2ccc(F)cc2)nn1, the viability, T/C falls from 92% to 79.3%.

Going from O=c1[nH]cc(F)c(=O)[nH]1 + COC1C(OC(N)=O)C(O)C(Oc2ccc3c(O)c(NC(=O)c4ccc(O)c(CC=C(C)C)c4)c(=O)oc3c2C)OC1(C)C to COc1ccc([C@@H](O)c2cc(-c3ncnc4cc(N5CCOCC5)ccc34)c(F)cc2Cl)nn1 + Cc1cccc(N(C)C(=O)C2C(O)CCN2c2nc(C)cc(C(F)(F)F)c2C#N)c1, the viability, T/C rises from 85.2% to 95.3%.

With O=c1[nH]cc(F)c(=O)[nH]1 + Nc1ccc(C#CCN(C(=O)Cc2ncc(C(F)(F)F)cc2C(F)(F)F)c2ccc(F)cc2)nn1 the viability, T/C was 85%.

Same assay, conditions: 997537-175-T-J1-PDC complex spheroid viability, combination with POLQ inhibitors; second compound 0.316 µM; first compound 10 µM; stronger effect = lower value

First: Nc1ccn(C2OC(CO)C(O)C2(F)F)c(=O)n1 (configuration not stated) + Nc1ccc(C#CCN(C(=O)Cc2ncc(C(F)(F)F)cc2C(F)(F)F)c2ccc(F)cc2)nn1
Second: CCCS(=O)(=O)Nc1ccc(F)c(C(=O)c2c[nH]c3ncc(-c4ccc(Cl)cc4)cc23)c1F + Nc1ccc(C#CCN(C(=O)Cc2ncc(C(F)(F)F)cc2C(F)(F)F)c2ccc(F)cc2)nn1
The viability, T/C of the first is higher: 66.2% for the first, 26.4% for the second.

First: O=c1[nH]cc(F)c(=O)[nH]1 + COC1C(OC(N)=O)C(O)C(Oc2ccc3c(O)c(NC(=O)c4ccc(O)c(CC=C(C)C)c4)c(=O)oc3c2C)OC1(C)C
Second: COc1ccc([C@@H](O)c2cc(-c3ncnc4cc(N5CCOCC5)ccc34)c(F)cc2Cl)nn1 + Cc1cccc(N(C)C(=O)C2C(O)CCN2c2nc(C)cc(C(F)(F)F)c2C#N)c1
The viability, T/C of the first is higher: 97.2% for the first, 82.9% for the second.

O=c1[nH]cc(F)c(=O)[nH]1 + Nc1ccc(C#CCN(C(=O)Cc2ncc(C(F)(F)F)cc2C(F)(F)F)c2ccc(F)cc2)nn1 showed a viability, T/C of 94.1%.

Same assay, conditions: 997537-175-T-J1-PDC complex spheroid viability, combination with POLQ inhibitors; second compound 1 µM; first compound 0.0316 µM; stronger effect = lower value

Going from Nc1ccn(C2OC(CO)C(O)C2(F)F)c(=O)n1 (configuration not stated) + Nc1ccc(C#CCN(C(=O)Cc2ncc(C(F)(F)F)cc2C(F)(F)F)c2ccc(F)cc2)nn1 to CCCS(=O)(=O)Nc1ccc(F)c(C(=O)c2c[nH]c3ncc(-c4ccc(Cl)cc4)cc23)c1F + Nc1ccc(C#CCN(C(=O)Cc2ncc(C(F)(F)F)cc2C(F)(F)F)c2ccc(F)cc2)nn1, the viability, T/C falls from 102% to 84.9%.

Going from O=c1[nH]cc(F)c(=O)[nH]1 + COC1C(OC(N)=O)C(O)C(Oc2ccc3c(O)c(NC(=O)c4ccc(O)c(CC=C(C)C)c4)c(=O)oc3c2C)OC1(C)C to COc1ccc([C@@H](O)c2cc(-c3ncnc4cc(N5CCOCC5)ccc34)c(F)cc2Cl)nn1 + Cc1cccc(N(C)C(=O)C2C(O)CCN2c2nc(C)cc(C(F)(F)F)c2C#N)c1, the viability, T/C rises from 96.7% to 98.5%.

With O=c1[nH]cc(F)c(=O)[nH]1 + Nc1ccc(C#CCN(C(=O)Cc2ncc(C(F)(F)F)cc2C(F)(F)F)c2ccc(F)cc2)nn1 the viability, T/C was 94.2%.

Same assay, conditions: 997537-175-T-J1-PDC complex spheroid viability, combination with POLQ inhibitors; second compound 1 µM; first compound 0.1 µM; stronger effect = lower value

Going from Nc1ccn(C2OC(CO)C(O)C2(F)F)c(=O)n1 (configuration not stated) + Nc1ccc(C#CCN(C(=O)Cc2ncc(C(F)(F)F)cc2C(F)(F)F)c2ccc(F)cc2)nn1 to CCCS(=O)(=O)Nc1ccc(F)c(C(=O)c2c[nH]c3ncc(-c4ccc(Cl)cc4)cc23)c1F + Nc1ccc(C#CCN(C(=O)Cc2ncc(C(F)(F)F)cc2C(F)(F)F)c2ccc(F)cc2)nn1, the viability, T/C falls from 99.6% to 96.4%.

First: O=c1[nH]cc(F)c(=O)[nH]1 + COC1C(OC(N)=O)C(O)C(Oc2ccc3c(O)c(NC(=O)c4ccc(O)c(CC=C(C)C)c4)c(=O)oc3c2C)OC1(C)C
Second: COc1ccc([C@@H](O)c2cc(-c3ncnc4cc(N5CCOCC5)ccc34)c(F)cc2Cl)nn1 + Cc1cccc(N(C)C(=O)C2C(O)CCN2c2nc(C)cc(C(F)(F)F)c2C#N)c1
The viability, T/C of the first is higher: 108% for the first, 102% for the second.

For O=c1[nH]cc(F)c(=O)[nH]1 + Nc1ccc(C#CCN(C(=O)Cc2ncc(C(F)(F)F)cc2C(F)(F)F)c2ccc(F)cc2)nn1, the viability, T/C was 93.9%.

Same assay, conditions: 997537-175-T-J1-PDC complex spheroid viability, combination with POLQ inhibitors; second compound 1 µM; first compound 0.316 µM; stronger effect = lower value

First: Nc1ccn(C2OC(CO)C(O)C2(F)F)c(=O)n1 (configuration not stated) + Nc1ccc(C#CCN(C(=O)Cc2ncc(C(F)(F)F)cc2C(F)(F)F)c2ccc(F)cc2)nn1
Second: CCCS(=O)(=O)Nc1ccc(F)c(C(=O)c2c[nH]c3ncc(-c4ccc(Cl)cc4)cc23)c1F + Nc1ccc(C#CCN(C(=O)Cc2ncc(C(F)(F)F)cc2C(F)(F)F)c2ccc(F)cc2)nn1
The viability, T/C of the first is lower: 84% for the first, 84.2% for the second.

First: O=c1[nH]cc(F)c(=O)[nH]1 + COC1C(OC(N)=O)C(O)C(Oc2ccc3c(O)c(NC(=O)c4ccc(O)c(CC=C(C)C)c4)c(=O)oc3c2C)OC1(C)C
Second: COc1ccc([C@@H](O)c2cc(-c3ncnc4cc(N5CCOCC5)ccc34)c(F)cc2Cl)nn1 + Cc1cccc(N(C)C(=O)C2C(O)CCN2c2nc(C)cc(C(F)(F)F)c2C#N)c1
The viability, T/C of the first is higher: 110% for the first, 91.7% for the second.

Compound O=c1[nH]cc(F)c(=O)[nH]1 + Nc1ccc(C#CCN(C(=O)Cc2ncc(C(F)(F)F)cc2C(F)(F)F)c2ccc(F)cc2)nn1 has a viability, T/C of 83.7%.

Same assay, conditions: 997537-175-T-J1-PDC complex spheroid viability, combination with POLQ inhibitors; second compound 1 µM; first compound 1 µM; stronger effect = lower value

First: Nc1ccn(C2OC(CO)C(O)C2(F)F)c(=O)n1 (configuration not stated) + Nc1ccc(C#CCN(C(=O)Cc2ncc(C(F)(F)F)cc2C(F)(F)F)c2ccc(F)cc2)nn1
Second: CCCS(=O)(=O)Nc1ccc(F)c(C(=O)c2c[nH]c3ncc(-c4ccc(Cl)cc4)cc23)c1F + Nc1ccc(C#CCN(C(=O)Cc2ncc(C(F)(F)F)cc2C(F)(F)F)c2ccc(F)cc2)nn1
The viability, T/C of the first is lower: 74.4% for the first, 86.4% for the second.

First: O=c1[nH]cc(F)c(=O)[nH]1 + COC1C(OC(N)=O)C(O)C(Oc2ccc3c(O)c(NC(=O)c4ccc(O)c(CC=C(C)C)c4)c(=O)oc3c2C)OC1(C)C
Second: COc1ccc([C@@H](O)c2cc(-c3ncnc4cc(N5CCOCC5)ccc34)c(F)cc2Cl)nn1 + Cc1cccc(N(C)C(=O)C2C(O)CCN2c2nc(C)cc(C(F)(F)F)c2C#N)c1
The viability, T/C of the first is lower: 89.9% for the first, 109% for the second.

With O=c1[nH]cc(F)c(=O)[nH]1 + Nc1ccc(C#CCN(C(=O)Cc2ncc(C(F)(F)F)cc2C(F)(F)F)c2ccc(F)cc2)nn1 the viability, T/C was 85.8%.

Same assay, conditions: 997537-175-T-J1-PDC complex spheroid viability, combination with POLQ inhibitors; second compound 1 µM; first compound 3.16 µM; stronger effect = lower value

Compared with Nc1ccn(C2OC(CO)C(O)C2(F)F)c(=O)n1 (configuration not stated) + Nc1ccc(C#CCN(C(=O)Cc2ncc(C(F)(F)F)cc2C(F)(F)F)c2ccc(F)cc2)nn1, CCCS(=O)(=O)Nc1ccc(F)c(C(=O)c2c[nH]c3ncc(-c4ccc(Cl)cc4)cc23)c1F + Nc1ccc(C#CCN(C(=O)Cc2ncc(C(F)(F)F)cc2C(F)(F)F)c2ccc(F)cc2)nn1 is lower in viability, T/C: 88.7% for the first, 66.8% for the second.

First: O=c1[nH]cc(F)c(=O)[nH]1 + COC1C(OC(N)=O)C(O)C(Oc2ccc3c(O)c(NC(=O)c4ccc(O)c(CC=C(C)C)c4)c(=O)oc3c2C)OC1(C)C
Second: COc1ccc([C@@H](O)c2cc(-c3ncnc4cc(N5CCOCC5)ccc34)c(F)cc2Cl)nn1 + Cc1cccc(N(C)C(=O)C2C(O)CCN2c2nc(C)cc(C(F)(F)F)c2C#N)c1
The viability, T/C of the first is higher: 92.2% for the first, 85.7% for the second.

Compound O=c1[nH]cc(F)c(=O)[nH]1 + Nc1ccc(C#CCN(C(=O)Cc2ncc(C(F)(F)F)cc2C(F)(F)F)c2ccc(F)cc2)nn1 has a viability, T/C of 73.5%.

Same assay, conditions: 997537-175-T-J1-PDC complex spheroid viability, combination with POLQ inhibitors; second compound 1 µM; first compound 10 µM; stronger effect = lower value

Going from Nc1ccn(C2OC(CO)C(O)C2(F)F)c(=O)n1 (configuration not stated) + Nc1ccc(C#CCN(C(=O)Cc2ncc(C(F)(F)F)cc2C(F)(F)F)c2ccc(F)cc2)nn1 to CCCS(=O)(=O)Nc1ccc(F)c(C(=O)c2c[nH]c3ncc(-c4ccc(Cl)cc4)cc23)c1F + Nc1ccc(C#CCN(C(=O)Cc2ncc(C(F)(F)F)cc2C(F)(F)F)c2ccc(F)cc2)nn1, the viability, T/C falls from 77.5% to 28.5%.

Compared with O=c1[nH]cc(F)c(=O)[nH]1 + COC1C(OC(N)=O)C(O)C(Oc2ccc3c(O)c(NC(=O)c4ccc(O)c(CC=C(C)C)c4)c(=O)oc3c2C)OC1(C)C, COc1ccc([C@@H](O)c2cc(-c3ncnc4cc(N5CCOCC5)ccc34)c(F)cc2Cl)nn1 + Cc1cccc(N(C)C(=O)C2C(O)CCN2c2nc(C)cc(C(F)(F)F)c2C#N)c1 is lower in viability, T/C: 87.5% for the first, 69.7% for the second.

Compound O=c1[nH]cc(F)c(=O)[nH]1 + Nc1ccc(C#CCN(C(=O)Cc2ncc(C(F)(F)F)cc2C(F)(F)F)c2ccc(F)cc2)nn1 has a viability, T/C of 79.9%.

Same assay, conditions: 997537-175-T-J1-PDC complex spheroid viability, combination with POLQ inhibitors; second compound 3.16 µM; first compound 0.0316 µM; stronger effect = lower value

Going from Nc1ccn(C2OC(CO)C(O)C2(F)F)c(=O)n1 (configuration not stated) + Nc1ccc(C#CCN(C(=O)Cc2ncc(C(F)(F)F)cc2C(F)(F)F)c2ccc(F)cc2)nn1 to CCCS(=O)(=O)Nc1ccc(F)c(C(=O)c2c[nH]c3ncc(-c4ccc(Cl)cc4)cc23)c1F + Nc1ccc(C#CCN(C(=O)Cc2ncc(C(F)(F)F)cc2C(F)(F)F)c2ccc(F)cc2)nn1, the viability, T/C falls from 100% to 85.5%.

Compared with O=c1[nH]cc(F)c(=O)[nH]1 + COC1C(OC(N)=O)C(O)C(Oc2ccc3c(O)c(NC(=O)c4ccc(O)c(CC=C(C)C)c4)c(=O)oc3c2C)OC1(C)C, COc1ccc([C@@H](O)c2cc(-c3ncnc4cc(N5CCOCC5)ccc34)c(F)cc2Cl)nn1 + Cc1cccc(N(C)C(=O)C2C(O)CCN2c2nc(C)cc(C(F)(F)F)c2C#N)c1 is lower in viability, T/C: 108% for the first, 80.8% for the second.

O=c1[nH]cc(F)c(=O)[nH]1 + Nc1ccc(C#CCN(C(=O)Cc2ncc(C(F)(F)F)cc2C(F)(F)F)c2ccc(F)cc2)nn1 gave a viability, T/C of 101%.

Same assay, conditions: 997537-175-T-J1-PDC complex spheroid viability, combination with POLQ inhibitors; second compound 3.16 µM; first compound 0.1 µM; stronger effect = lower value

First: Nc1ccn(C2OC(CO)C(O)C2(F)F)c(=O)n1 (configuration not stated) + Nc1ccc(C#CCN(C(=O)Cc2ncc(C(F)(F)F)cc2C(F)(F)F)c2ccc(F)cc2)nn1
Second: CCCS(=O)(=O)Nc1ccc(F)c(C(=O)c2c[nH]c3ncc(-c4ccc(Cl)cc4)cc23)c1F + Nc1ccc(C#CCN(C(=O)Cc2ncc(C(F)(F)F)cc2C(F)(F)F)c2ccc(F)cc2)nn1
The viability, T/C of the first is higher: 105% for the first, 89.3% for the second.

Source: PubChem BioAssay AID1963825 (Molecular Pharmacology Branch, DTP, NCI, 2024)
